Source: paper PMC5392334, “Discovery and characterization of a novel irreversible EGFR mutants selective and potent kinase inhibitor CHMFL-EGFR-26 with a distinct binding mode” (Oncotarget, 2017)

How the values were obtained:
[1] = target: T1, PAK4 (Homo sapiens, UniProt O96013); test: KinomeScan; format: binding; details: read-out: % control
T1 construct: purchased DiscoveRx KINOMEscan

[2] = target: T2, MAP4K4 (Homo sapiens, UniProt O95819); test: KinomeScan; format: binding; details: read-out: % control
T2 construct: purchased DiscoveRx KINOMEscan

[3] = target: T3, TRPM6 (Homo sapiens, UniProt Q9BX84); test: KinomeScan; format: binding; details: read-out: % control
T3 construct: purchased DiscoveRx KINOMEscan

[4] = target: T4, TYK2(JH2domain-pseudokinase) (Homo sapiens, UniProt P29597); test: KinomeScan; format: binding; details: read-out: % control
T4 construct: TYK2(JH2domain-pseudokinase); purchased DiscoveRx KINOMEscan

[5] = target: T5, ZAP70 (Homo sapiens, UniProt P43403); test: KinomeScan; format: binding; details: read-out: % control
T5 construct: purchased DiscoveRx KINOMEscan

[6] = target: T6, HASPIN (Homo sapiens, UniProt Q8TF76); test: KinomeScan; format: binding; details: read-out: % control
T6 construct: purchased DiscoveRx KINOMEscan

[7] = target: T7, KIT(V559D,V654A) (Homo sapiens, UniProt P10721, V559D/V654A); test: KinomeScan; format: binding; details: read-out: % control
T7 construct: purchased DiscoveRx KINOMEscan

[8] = target: RPS6KA4(Kin.Dom.2-C-terminal) (Homo sapiens, UniProt O75676); test: KinomeScan; format: binding; details: read-out: % control
[9] = target: T8, MAP4K3 (Homo sapiens, UniProt Q8IVH8); test: KinomeScan; format: binding; details: read-out: % control
T8 construct: purchased DiscoveRx KINOMEscan

[10] = test system: NSCLC cell lines (H1975, HCC827, PC9, H3255; EGFR wt lines); test: Apoptosis effect examination (Caspase-3 and PARP cleavage); format: cell-based, human
Description: We then examined CHMFL-EGFR-26's effect on cell cycle progression and apoptosis.
Cells were then washed in PBS and lysed in cell lysis buffer. PARP, Caspase-3, GAPDH antibodies were used for immunoblotting.

[11] = target: T9, YANK1 (Homo sapiens, UniProt Q8WU08); test: KinomeScan; format: binding; details: read-out: % control
T9 construct: purchased DiscoveRx KINOMEscan

[12] = target: T10, RIOK2 (Homo sapiens, UniProt Q9BVS4); test: KinomeScan; format: binding; details: read-out: % control
T10 construct: purchased DiscoveRx KINOMEscan

[13] = target: T11, CAMK2G (Homo sapiens, UniProt Q13555); test: KinomeScan; format: binding; details: read-out: % control
T11 construct: purchased DiscoveRx KINOMEscan

[14] = target: T12, CTK (Homo sapiens, UniProt P42679); test: KinomeScan; format: binding; details: read-out: % control
T12 construct: purchased DiscoveRx KINOMEscan

[15] = target: T13, PDGFRB (Homo sapiens, UniProt P09619); test: KinomeScan; format: binding; details: read-out: % control
T13 construct: purchased DiscoveRx KINOMEscan

[16] = target: T14, BMPR1A (Homo sapiens, UniProt P36894); test: KinomeScan; format: binding; details: read-out: % control
T14 construct: purchased DiscoveRx KINOMEscan

[17] = target: T15, FGFR3 (Homo sapiens, UniProt P22607); test: KinomeScan; format: binding; details: read-out: % control
T15 construct: purchased DiscoveRx KINOMEscan

[18] = target: T16, ERN1 (Homo sapiens, UniProt O75460); test: KinomeScan; format: binding; details: read-out: % control
T16 construct: purchased DiscoveRx KINOMEscan

[19] = target: T17, LKB1 (Homo sapiens, UniProt Q15831); test: KinomeScan; format: binding; details: read-out: % control
T17 construct: purchased DiscoveRx KINOMEscan

[20] = target: T18, EPHA6 (Homo sapiens, UniProt Q9UF33); test: KinomeScan; format: binding; details: read-out: % control
T18 construct: purchased DiscoveRx KINOMEscan

[21] = target: T19, TLK2 (Homo sapiens, UniProt Q86UE8); test: KinomeScan; format: binding; details: read-out: % control
T19 construct: purchased DiscoveRx KINOMEscan

[22] = target: T20, OSR1 (Homo sapiens, UniProt O95747); test: KinomeScan; format: binding; details: read-out: % control
T20 construct: purchased DiscoveRx KINOMEscan

[23] = target: T21, TGFBR2 (Homo sapiens, UniProt P37173); test: KinomeScan; format: binding; details: read-out: % control
T21 construct: purchased DiscoveRx KINOMEscan

[24] = target: T22, EGFR(E746-A750del) (Homo sapiens, UniProt P00533, DEL746-750); test: KinomeScan; format: binding; details: read-out: % control
T22 construct: purchased DiscoveRx KINOMEscan

[25] = target: T23, AKT3 (Homo sapiens, UniProt Q9Y243); test: KinomeScan; format: binding; details: read-out: % control
T23 construct: purchased DiscoveRx KINOMEscan

[26] = target: T24, DAPK3 (Homo sapiens, UniProt O43293); test: KinomeScan; format: binding; details: read-out: % control
T24 construct: purchased DiscoveRx KINOMEscan

[27] = target: T25, ACVRL1 (Homo sapiens, UniProt P37023); test: KinomeScan; format: binding; details: read-out: % control
T25 construct: purchased DiscoveRx KINOMEscan

[28] = test system: BaF3-FL-EGFR-del19-T790M-C797S; test: Anti-proliferation, BaF3 isogenic cell lines (CellTiter-Glo); format: cell-based; details: Mus musculus, 72 hours, triplet testing
[29] = target: T26, NDR2 (Homo sapiens, UniProt Q9Y2H1); test: KinomeScan; format: binding; details: read-out: % control
T26 construct: purchased DiscoveRx KINOMEscan

[30] = target: T27, PRKD3 (Homo sapiens, UniProt O94806); test: KinomeScan; format: binding; details: read-out: % control
T27 construct: purchased DiscoveRx KINOMEscan

[31] = target: T28, RPS6KA4(Kin.Dom.1-N-terminal) (Homo sapiens, UniProt O75676); test: KinomeScan; format: binding; details: read-out: % control
T28 construct: RPS6KA4(Kin.Dom.1-N-terminal); purchased DiscoveRx KINOMEscan

[32] = target: T29, ALK (Homo sapiens, UniProt Q9UM73); test: KinomeScan; format: binding; details: read-out: % control
T29 construct: purchased DiscoveRx KINOMEscan

[33] = target: T30, PRKCE (Homo sapiens, UniProt Q02156); test: KinomeScan; format: binding; details: read-out: % control
T30 construct: purchased DiscoveRx KINOMEscan

[34] = target: T31, PRKD2 (Homo sapiens, UniProt Q9BZL6); test: KinomeScan; format: binding; details: read-out: % control
T31 construct: purchased DiscoveRx KINOMEscan

[35] = target: T32, RIPK4 (Homo sapiens, UniProt P57078); test: KinomeScan; format: binding; details: read-out: % control
T32 construct: purchased DiscoveRx KINOMEscan

[36] = target: T33, LRRK2 (Homo sapiens, UniProt Q5S007); test: KinomeScan; format: binding; details: read-out: % control
T33 construct: purchased DiscoveRx KINOMEscan

[37] = target: T34, CSNK1A1 (Homo sapiens, UniProt P48729); test: KinomeScan; format: binding; details: read-out: % control
T34 construct: purchased DiscoveRx KINOMEscan

[38] = target: T35, DMPK (Homo sapiens, UniProt Q09013); test: KinomeScan; format: binding; details: read-out: % control
T35 construct: purchased DiscoveRx KINOMEscan

[39] = target: T36, FYN (Homo sapiens, UniProt P06241); test: KinomeScan; format: binding; details: read-out: % control
T36 construct: purchased DiscoveRx KINOMEscan

[40] = target: T37, DYRK2 (Homo sapiens, UniProt Q92630); test: KinomeScan; format: binding; details: read-out: % control
T37 construct: purchased DiscoveRx KINOMEscan

T15 sequence (P22607 23-806): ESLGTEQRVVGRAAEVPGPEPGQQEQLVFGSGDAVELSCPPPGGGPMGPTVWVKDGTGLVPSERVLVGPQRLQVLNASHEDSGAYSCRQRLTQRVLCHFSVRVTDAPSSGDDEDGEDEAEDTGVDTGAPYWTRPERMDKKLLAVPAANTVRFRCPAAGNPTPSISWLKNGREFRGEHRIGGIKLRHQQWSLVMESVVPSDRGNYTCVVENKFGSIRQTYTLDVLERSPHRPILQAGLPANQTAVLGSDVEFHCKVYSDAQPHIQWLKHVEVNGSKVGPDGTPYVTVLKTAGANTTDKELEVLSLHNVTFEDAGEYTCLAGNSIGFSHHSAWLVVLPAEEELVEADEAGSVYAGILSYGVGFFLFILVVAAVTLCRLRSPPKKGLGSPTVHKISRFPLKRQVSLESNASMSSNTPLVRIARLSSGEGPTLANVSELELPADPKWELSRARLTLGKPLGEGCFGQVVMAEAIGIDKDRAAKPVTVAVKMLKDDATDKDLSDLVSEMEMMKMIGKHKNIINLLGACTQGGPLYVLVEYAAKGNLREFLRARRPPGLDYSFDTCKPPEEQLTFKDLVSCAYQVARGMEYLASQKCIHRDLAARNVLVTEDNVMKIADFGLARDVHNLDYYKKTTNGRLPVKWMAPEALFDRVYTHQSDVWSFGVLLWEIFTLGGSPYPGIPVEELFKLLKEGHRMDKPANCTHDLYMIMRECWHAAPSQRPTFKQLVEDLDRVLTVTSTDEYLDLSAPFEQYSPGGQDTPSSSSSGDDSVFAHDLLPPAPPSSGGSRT
T32 sequence (P57078 whole entry): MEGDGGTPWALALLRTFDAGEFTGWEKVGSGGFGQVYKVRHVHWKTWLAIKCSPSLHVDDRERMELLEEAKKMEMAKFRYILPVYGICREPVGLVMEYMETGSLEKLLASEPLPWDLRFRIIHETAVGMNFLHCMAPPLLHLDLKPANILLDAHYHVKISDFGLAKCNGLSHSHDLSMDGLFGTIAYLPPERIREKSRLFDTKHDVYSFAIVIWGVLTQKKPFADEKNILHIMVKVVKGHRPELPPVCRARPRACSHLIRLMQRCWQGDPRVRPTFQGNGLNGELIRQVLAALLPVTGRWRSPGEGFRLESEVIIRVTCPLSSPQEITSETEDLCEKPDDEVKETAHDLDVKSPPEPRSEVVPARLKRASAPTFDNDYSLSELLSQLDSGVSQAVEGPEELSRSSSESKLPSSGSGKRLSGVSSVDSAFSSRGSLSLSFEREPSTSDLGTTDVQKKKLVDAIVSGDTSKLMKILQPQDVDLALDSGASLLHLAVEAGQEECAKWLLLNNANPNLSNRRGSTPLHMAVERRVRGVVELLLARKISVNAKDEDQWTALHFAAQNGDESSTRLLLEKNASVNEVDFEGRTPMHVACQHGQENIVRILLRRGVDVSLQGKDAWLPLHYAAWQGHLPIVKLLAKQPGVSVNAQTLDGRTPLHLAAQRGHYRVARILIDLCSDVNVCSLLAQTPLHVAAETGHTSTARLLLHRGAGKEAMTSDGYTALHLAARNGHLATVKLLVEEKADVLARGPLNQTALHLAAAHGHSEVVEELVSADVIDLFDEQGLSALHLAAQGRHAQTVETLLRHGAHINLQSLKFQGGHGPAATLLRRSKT
T10 sequence (Q9BVS4 whole entry): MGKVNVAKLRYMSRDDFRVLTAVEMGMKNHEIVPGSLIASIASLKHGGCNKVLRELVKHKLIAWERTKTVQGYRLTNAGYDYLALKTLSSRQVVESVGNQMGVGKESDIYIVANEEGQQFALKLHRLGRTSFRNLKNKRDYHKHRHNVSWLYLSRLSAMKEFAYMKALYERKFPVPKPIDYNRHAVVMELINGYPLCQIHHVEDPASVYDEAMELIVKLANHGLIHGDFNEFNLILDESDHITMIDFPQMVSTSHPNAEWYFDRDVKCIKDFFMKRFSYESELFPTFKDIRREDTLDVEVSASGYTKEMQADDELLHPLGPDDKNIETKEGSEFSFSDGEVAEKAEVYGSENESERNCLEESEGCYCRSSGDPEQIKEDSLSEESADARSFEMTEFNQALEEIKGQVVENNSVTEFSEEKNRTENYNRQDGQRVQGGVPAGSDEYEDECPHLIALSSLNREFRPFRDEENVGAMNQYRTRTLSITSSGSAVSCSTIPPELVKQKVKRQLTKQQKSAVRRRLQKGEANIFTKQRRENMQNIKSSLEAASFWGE
T25 sequence (P37023 22-503): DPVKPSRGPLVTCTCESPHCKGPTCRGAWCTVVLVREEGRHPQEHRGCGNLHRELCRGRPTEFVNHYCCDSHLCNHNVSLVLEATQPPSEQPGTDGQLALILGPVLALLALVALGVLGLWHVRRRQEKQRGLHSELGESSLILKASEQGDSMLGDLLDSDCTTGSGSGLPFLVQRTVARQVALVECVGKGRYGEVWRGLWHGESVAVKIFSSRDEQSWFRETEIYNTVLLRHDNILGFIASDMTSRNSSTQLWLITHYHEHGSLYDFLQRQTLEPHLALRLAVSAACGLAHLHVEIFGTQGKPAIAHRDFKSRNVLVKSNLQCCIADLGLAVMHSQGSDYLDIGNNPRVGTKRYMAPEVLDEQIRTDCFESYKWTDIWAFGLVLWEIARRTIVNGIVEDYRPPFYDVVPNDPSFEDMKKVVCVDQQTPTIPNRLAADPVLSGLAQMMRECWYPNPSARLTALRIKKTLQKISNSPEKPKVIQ
T2 sequence (O95819 whole entry): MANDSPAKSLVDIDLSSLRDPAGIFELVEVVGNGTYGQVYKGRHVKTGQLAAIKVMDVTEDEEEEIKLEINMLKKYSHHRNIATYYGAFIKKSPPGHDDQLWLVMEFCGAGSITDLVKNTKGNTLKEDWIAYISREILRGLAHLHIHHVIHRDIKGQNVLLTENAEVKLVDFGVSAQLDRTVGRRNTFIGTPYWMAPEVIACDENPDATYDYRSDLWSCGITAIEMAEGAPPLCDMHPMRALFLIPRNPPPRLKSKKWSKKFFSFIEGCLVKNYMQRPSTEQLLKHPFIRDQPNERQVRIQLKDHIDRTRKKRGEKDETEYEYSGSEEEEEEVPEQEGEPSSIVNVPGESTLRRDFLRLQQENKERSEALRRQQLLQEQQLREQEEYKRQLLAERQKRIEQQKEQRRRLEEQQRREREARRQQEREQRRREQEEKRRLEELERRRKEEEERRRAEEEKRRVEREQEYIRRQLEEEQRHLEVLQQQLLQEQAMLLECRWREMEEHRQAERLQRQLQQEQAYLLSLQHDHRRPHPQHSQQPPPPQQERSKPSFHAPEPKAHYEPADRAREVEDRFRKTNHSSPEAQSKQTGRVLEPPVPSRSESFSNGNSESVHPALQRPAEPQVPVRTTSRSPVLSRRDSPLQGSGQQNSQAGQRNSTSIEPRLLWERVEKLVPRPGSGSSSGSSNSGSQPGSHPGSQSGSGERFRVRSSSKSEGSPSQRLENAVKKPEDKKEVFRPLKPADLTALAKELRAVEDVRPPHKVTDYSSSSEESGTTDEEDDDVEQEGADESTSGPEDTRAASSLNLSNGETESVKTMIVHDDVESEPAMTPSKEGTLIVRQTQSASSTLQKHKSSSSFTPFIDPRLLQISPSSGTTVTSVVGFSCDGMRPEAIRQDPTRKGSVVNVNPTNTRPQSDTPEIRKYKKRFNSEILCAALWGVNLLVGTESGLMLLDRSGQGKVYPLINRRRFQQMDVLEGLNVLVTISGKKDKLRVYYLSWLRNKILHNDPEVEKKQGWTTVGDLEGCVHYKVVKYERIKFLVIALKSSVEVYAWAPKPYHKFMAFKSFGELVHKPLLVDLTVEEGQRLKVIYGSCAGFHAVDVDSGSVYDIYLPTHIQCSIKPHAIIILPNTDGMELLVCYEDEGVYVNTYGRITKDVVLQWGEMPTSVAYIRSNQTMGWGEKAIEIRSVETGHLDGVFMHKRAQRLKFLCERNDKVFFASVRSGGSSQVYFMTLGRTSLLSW
T28 sequence (O75676 1-371 limits assumed): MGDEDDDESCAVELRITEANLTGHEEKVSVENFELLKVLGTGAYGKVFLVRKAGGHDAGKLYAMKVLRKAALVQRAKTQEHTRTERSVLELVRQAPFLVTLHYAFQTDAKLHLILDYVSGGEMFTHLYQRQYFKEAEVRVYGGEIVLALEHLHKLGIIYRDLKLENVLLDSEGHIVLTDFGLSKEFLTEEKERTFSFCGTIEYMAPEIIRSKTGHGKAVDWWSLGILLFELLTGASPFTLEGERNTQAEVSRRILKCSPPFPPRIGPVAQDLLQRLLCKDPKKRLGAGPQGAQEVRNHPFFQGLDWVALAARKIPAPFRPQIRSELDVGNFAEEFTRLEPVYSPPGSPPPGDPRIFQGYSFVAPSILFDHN
T9 sequence (Q8WU08 whole entry): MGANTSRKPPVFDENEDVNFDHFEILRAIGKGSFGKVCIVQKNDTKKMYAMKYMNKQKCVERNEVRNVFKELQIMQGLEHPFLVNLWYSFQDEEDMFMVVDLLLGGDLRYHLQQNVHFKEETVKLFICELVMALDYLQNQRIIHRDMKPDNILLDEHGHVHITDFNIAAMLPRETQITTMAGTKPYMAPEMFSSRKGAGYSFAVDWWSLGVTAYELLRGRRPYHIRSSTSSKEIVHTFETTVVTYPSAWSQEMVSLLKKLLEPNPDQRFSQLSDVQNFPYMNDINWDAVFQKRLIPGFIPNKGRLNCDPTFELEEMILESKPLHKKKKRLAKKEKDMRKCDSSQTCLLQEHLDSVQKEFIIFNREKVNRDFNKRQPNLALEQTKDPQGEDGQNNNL
T34 sequence (P48729 whole entry): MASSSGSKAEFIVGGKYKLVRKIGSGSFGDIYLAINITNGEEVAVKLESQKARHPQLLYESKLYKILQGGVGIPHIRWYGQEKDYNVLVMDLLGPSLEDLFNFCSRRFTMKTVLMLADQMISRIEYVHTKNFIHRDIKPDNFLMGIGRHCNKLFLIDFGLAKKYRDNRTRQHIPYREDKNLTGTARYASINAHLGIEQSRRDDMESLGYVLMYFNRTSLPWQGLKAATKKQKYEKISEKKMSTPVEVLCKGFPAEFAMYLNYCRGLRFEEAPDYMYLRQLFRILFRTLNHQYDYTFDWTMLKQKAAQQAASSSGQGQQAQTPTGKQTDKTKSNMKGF

SMILES: C=CC(=O)N1CCC[C@@H](n2nc(-c3ccc(OCc4cccc(C)n4)c(Cl)c3)c3c(N)ncnc32)C1 [CHMFL-EGFR-26]
- remaining binding at 1 µM [1]: 94%
- remaining binding at 1 µM [2]: 46%
- remaining binding at 1 µM [3]: 100%
- remaining binding at 1 µM [4]: 97%
- remaining binding at 1 µM [5]: 100%
- remaining binding at 1 µM [6]: 100%
- remaining binding at 1 µM [7]: 89%
- remaining binding at 1 µM [8]: 100%
- remaining binding at 1 µM [9]: 97%
- Caspase-3 and PARP cleavage (apoptosis) ([10]; EGFR wt NSCLC cell lines, 72hrs): no cleaved Caspase-3 and PARP detected
- Caspase-3 and PARP cleavage (apoptosis) ([10]; H1975, HCC827, PC9 and H3255, 30nM, 24hrs): sufficient to induce Caspase-3 and PARP cleavage
- remaining binding at 1 µM [11]: 3.6%
- remaining binding at 1 µM [12]: 100%
- remaining binding at 1 µM [13]: 95%
- remaining binding at 1 µM [14]: 95%
- remaining binding at 1 µM [15]: 94%
- remaining binding at 1 µM [16]: 100%
- remaining binding at 1 µM [17]: 100%
- remaining binding at 1 µM [18]: 81%
- remaining binding at 1 µM [19]: 79%
- remaining binding at 1 µM [20]: 97%
- remaining binding at 1 µM [21]: 80%
- remaining binding at 1 µM [22]: 95%
- remaining binding at 1 µM [23]: 100%
- remaining binding at 1 µM [24]: 34%
- remaining binding at 1 µM [25]: 59%
- remaining binding at 1 µM [26]: 98%
- remaining binding at 1 µM [27]: 100%
- GI50 [28]: 2100 nM
- remaining binding at 1 µM [29]: 100%
- remaining binding at 1 µM [30]: 92%
- remaining binding at 1 µM [31]: 11%
- remaining binding at 1 µM [32]: 100%
- remaining binding at 1 µM [33]: 99%
- remaining binding at 1 µM [34]: 81%
- remaining binding at 1 µM [35]: 96%
- remaining binding at 1 µM [36]: 100%
- remaining binding at 1 µM [37]: 100%
- remaining binding at 1 µM [38]: 66%
- remaining binding at 1 µM [39]: 90%
- remaining binding at 1 µM [40]: 86%
